# In patent US5219866A, “Octadecyl-[2-(N-methylpiperidino)-ethyl]-phosphate and a process for its preparation” (Asta Medica AG, priority 1991, dated 1993):
# Columns and labels:
# [1] = tested on: Human KB tumour cell line; test: EC90, growth inhibition of human KB tumour cell line in vitro; assay type: cell-based; conditions: concentration which inhibits growth of cancer cells in vitro by 90%, read-out: ECqo in μg/ml Human KB tumour cell line in vitro
# Method: Human KB tumour cell line in
# The EC90 is determined in vitro in the same cell line. The EC90 is the concentration of substance having an antitumor effect in μg/ml which inhibits the growth of cancer cells in vitro by 90% in comparison to a control experiment without addition of the antitumor-acting substance.
# [2] = tested on: human KB tumor cell line which is transplanted in nude mice; test: Growth inhibition index WHI in vivo, human KB tumour cell line transplanted into nude mice; parameters: species or system human (KB tumour); nude mice (host); conditions: for Growth inhibition index WHI in % in vivo/humane KB tumour cell line transplanted into nude: 14th day after treatment related to the value on the day of application, WHI >100% = tumors became smaller
# Method: Growth inhibition index WHI in % in vivo/humane
# Substance KB tumour cell line transplanted into nude
# The growth inhibition index WHI is determined in the human KB tumor cell line which is transplanted in nude mice. The growth inhibition index is defined as follows: [formula] of the treated group or in the control group on the 14th day after treatment related to the value on the day of application. […] In other words, the higher the WHI, the stronger the antitumor efficacy of a test substance.
# (§1) The compounds of the invention display a good antineoplastic effect in the KB tumor (human carcinoma of the buccal cavity, transplanted subcutaneously to nude mice) and in autochthonous, chemically-induced DMBA-breast gland cancer in the rat.
# lipoxygenase = lipoxygenase inhibition; assay type: biochemical
# phospholipase-A2 = phospholipase-A2 inhibition; assay type: biochemical
# [3] = tested on: blood platelet aggregation; test: inhibition of blood platelet aggregation; assay type: cell-based
# DMBA-breast gland cancer = test: autochthonous, chemically-induced DMBA-breast gland cancer in the rat; assay type: in vivo; conditions: oral, 21.5 mg/kg body weight daily, 14-day treatment
# Excerpt: as §1
Compound,IC90 [1],Growth inhibition index WHI in % in vivo/humane KB tumour cell line transplanted into nude [2],lipoxygenase-inhibiting effect (lipoxygenase),phospholipase-A2-inhibiting effect (phospholipase-A2),inhibition of blood platelet aggregation [3],regression of DMBA tumors weighing 5 g (DMBA-breast gland cancer),"regression of the KB tumors ([2]; 2×316 mg/kg body weight, given at intervals of one week)"
CCCCCCCCCCCCCCCCCCOP(=O)([O-])OCC[N+]1(C)CCCCCC1 [D20918],1 µg/mL,0%,,,,,
CCCCCCCCCCCCCCCCCCOP(=O)([O-])OCC[N+](C)(C)C [D 19391],0.31 µg/mL,11%,,,,,
CCCCCCCCCCCCCCCCCCOP(=O)([O-])OCC[n+]1ccccc1 [D 19862],> 1 µg/mL,0%,,,,,
"CCCCCCCCCCCCCCCCCCOP(=O)([O-])OCC[N+]1(C)CCCCC1 [D 20133, Octadecyl-[2-(N-methylpiperidino)-ethyl]-phosphate]",0.3 µg/mL,121%,lipoxygenase-inhibiting effect,phospholipase-A2 -inhibiting,causes inhibition of blood platelet aggregation,regressed to the borderline of palpability,achieved a regression of the KB tumors

# Second part, led by results:
IC90 [1],Compound,Growth inhibition index WHI in % in vivo/humane KB tumour cell line transplanted into nude [2],lipoxygenase-inhibiting effect (lipoxygenase),phospholipase-A2-inhibiting effect (phospholipase-A2),inhibition of blood platelet aggregation [3],regression of DMBA tumors weighing 5 g (DMBA-breast gland cancer),"regression of the KB tumors ([2]; 2×316 mg/kg body weight, given at intervals of one week)"
> 10 µg/mL,CCCCCCCCCCCCCCCCCCOP(=O)([O-])OCC[N+]1(C)CCOCC1 [D 20680],0%,,,,,
1 µg/mL,CCCCCCCCCCCCCCCCCCOP(=O)([O-])OCC[N+]1(CC)CCCCC1 [D 20931],13%,,,,,
